The source made the active and inactive calls. The rule behind the calls is not given here.
Key:
[1] = Inhibition of Escherichia coli MurD ligase
[2] = target: T1, Tubulin--tyrosine ligase (Homo sapiens) (UniProt Q8NG68); experiment: Inhibition of TTL (unknown origin)
T1 sequence (whole entry): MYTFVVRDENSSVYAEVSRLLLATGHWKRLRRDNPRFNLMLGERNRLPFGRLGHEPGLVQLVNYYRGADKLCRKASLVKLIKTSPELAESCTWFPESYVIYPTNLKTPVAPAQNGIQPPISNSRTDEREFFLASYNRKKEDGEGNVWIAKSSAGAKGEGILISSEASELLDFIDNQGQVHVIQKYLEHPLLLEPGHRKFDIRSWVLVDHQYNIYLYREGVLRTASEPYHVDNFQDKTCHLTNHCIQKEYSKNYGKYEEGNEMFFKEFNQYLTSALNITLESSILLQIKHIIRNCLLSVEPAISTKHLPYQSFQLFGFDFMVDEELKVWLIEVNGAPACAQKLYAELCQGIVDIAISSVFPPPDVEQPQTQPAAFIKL

[3] = target: T2, Tubulin polyglutamylase TTLL7 (Mus musculus, UniProt A4Q9F0); experiment: (§1) Inhibition of mouse recombinant N-terminal GST-tagged TTLL7-mediated Ac-DATAEEEGEFEEEAEEEVA glutamylation expressed in Escherichia coli Rosetta2 DE3 after 16 hrs by LC-MS analysis
T2 sequence (A4Q9F0 whole entry): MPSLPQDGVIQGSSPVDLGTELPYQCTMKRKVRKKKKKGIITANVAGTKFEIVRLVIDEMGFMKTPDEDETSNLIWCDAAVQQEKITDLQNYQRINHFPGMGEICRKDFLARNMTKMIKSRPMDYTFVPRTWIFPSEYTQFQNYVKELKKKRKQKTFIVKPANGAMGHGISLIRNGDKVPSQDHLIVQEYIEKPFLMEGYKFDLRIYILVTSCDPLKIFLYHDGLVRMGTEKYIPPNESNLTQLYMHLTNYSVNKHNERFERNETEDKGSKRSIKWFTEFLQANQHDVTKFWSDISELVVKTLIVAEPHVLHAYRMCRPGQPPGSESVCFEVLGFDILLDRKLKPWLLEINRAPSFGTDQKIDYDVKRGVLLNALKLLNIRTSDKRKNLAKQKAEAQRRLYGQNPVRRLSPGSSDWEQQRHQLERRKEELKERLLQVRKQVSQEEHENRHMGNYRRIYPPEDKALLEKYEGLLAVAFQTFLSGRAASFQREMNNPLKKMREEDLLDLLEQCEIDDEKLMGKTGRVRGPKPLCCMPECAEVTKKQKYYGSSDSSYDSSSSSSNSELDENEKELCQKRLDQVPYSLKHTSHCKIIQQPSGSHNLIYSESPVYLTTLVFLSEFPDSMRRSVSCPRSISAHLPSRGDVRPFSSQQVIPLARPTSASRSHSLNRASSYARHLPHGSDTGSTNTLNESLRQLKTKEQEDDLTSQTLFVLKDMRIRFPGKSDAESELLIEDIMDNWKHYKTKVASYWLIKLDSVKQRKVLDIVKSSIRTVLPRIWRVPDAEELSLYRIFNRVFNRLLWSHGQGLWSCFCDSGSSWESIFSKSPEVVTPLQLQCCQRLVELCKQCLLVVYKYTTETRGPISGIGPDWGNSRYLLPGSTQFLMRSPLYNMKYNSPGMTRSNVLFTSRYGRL

[4] = target: T3, Tubulin polyglutamylase TTLL7 (Mus musculus) (UniProt A4Q9F0); experiment: as §1
T3 sequence (whole entry): T2 sequence (A4Q9F0 whole entry)

Row | Compound | IC50 [1] [nM] | inhibition [2] | IC50 [3] [nM] | inhibition [4]
1 | CC(NC(=O)CCCCCOP(=O)(O)OP(=O)(O)OC[C@H]1O[C@@H](n2ccc(=O)[nH]c2=O)[C@H](O)[C@@H]1O)P(=O)(O)CC(CCC(=O)O)C(=O)O (stereo partly drawn) | 700 | – | – | –
2 | CC(=O)N[C@H]1[C@@H](OP(=O)(O)OP(=O)(O)OC[C@H]2O[C@@H](n3ccc(=O)[nH]c3=O)[C@H](O)[C@@H]2O)O[C@H](CO)[C@@H](O)[C@@H]1O[C@H](C)C(=O)N[C@@H](C)P(=O)(O)CC(CCC(=O)O)C(=O)O (stereo partly drawn) | 1 | – | – | –
3 | CC(=O)NC(CCC(=O)O)P(=O)(O)CC(CCC(=O)O)C(=O)O (mixture of isomers) | – | inactive | 150000 | –
4 | CC(=O)N[C@@H](CCP(=O)(O)CC(CCC(=O)O)C(=O)O)C(=O)O (mixture of isomers) | – | inactive | – | Active
5 | CCNC(=O)[C@H](CCP(=O)(O)CC(CCC(=O)O)C(=O)O)NC(C)=O (mixture of isomers) | – | inactive | – | Active

From ChEMBL document CHEMBL2401688, “Phosphinic acid-based inhibitors of tubulin polyglutamylases” (Bioorg Med Chem Lett, 2013)
